Assay results taken from paper PMC9841765 (Archives of biochemistry and biophysics, 2020).

Key:
Assay in all cases: malachite green phosphate release
Type in all cases: biochemical
Conditions in all cases: pH 8.0, 5 mM MgCl2, 200 mM KCl, 37 °C
SmNFeoB = target: T1, SmNFeoB (Streptococcus mutans, UniProt Q8DVC3)
T1 sequence (Q8DVC3 1-273): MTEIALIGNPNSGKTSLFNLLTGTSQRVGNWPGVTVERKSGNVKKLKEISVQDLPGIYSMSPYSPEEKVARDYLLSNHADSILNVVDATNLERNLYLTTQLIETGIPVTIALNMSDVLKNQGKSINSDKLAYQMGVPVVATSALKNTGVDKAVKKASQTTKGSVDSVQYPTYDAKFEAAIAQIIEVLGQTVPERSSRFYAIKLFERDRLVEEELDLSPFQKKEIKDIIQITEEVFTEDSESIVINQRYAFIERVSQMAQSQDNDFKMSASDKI

SaNFeoB = SaNFeoB (Staphylococcus aureus, UniProt Q5HD01)
BcNFeoB = target: T2, BcNFeoB (Bacillus cereus, UniProt Q72YQ6)
T2 sequence (Q72YQ6 1-269): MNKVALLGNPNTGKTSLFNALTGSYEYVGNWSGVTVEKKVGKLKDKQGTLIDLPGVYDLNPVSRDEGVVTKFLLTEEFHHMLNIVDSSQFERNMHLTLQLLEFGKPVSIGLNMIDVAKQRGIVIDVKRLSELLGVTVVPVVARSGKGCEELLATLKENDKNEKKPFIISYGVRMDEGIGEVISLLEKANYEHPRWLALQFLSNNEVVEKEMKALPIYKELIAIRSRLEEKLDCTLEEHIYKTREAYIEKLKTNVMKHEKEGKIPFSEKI

LmNFeoB = LmNFeoB (Listeria monocytogenes, UniProt Q8Y5F9)
EcNFeoB = target: T3, EcNFeoB (Escherichia coli, UniProt P33650)
T3 sequence (P33650 1-274): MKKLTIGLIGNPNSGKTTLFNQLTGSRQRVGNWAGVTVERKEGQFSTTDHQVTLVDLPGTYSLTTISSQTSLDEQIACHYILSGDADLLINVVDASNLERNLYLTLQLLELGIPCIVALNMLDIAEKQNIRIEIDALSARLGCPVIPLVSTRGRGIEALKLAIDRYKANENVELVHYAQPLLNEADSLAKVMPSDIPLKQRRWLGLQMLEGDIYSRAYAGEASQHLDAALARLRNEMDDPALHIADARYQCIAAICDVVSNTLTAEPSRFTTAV

StNFeoB = StNFeoB (Salmonella enterica, UniProt P74884)
PaNFeoB = PaNFeoB (Pseudomonas aeruginosa, UniProt Q9HW43)

Chain of SaNFeoB (Q5HD01 1-272): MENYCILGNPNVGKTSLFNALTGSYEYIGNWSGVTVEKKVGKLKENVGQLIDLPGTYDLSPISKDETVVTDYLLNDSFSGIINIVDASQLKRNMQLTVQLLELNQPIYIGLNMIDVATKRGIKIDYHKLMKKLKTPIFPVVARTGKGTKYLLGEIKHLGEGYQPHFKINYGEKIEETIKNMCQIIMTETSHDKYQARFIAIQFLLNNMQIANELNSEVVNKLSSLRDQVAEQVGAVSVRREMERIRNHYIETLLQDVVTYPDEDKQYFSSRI
Chain of StNFeoB (P74884 1-274): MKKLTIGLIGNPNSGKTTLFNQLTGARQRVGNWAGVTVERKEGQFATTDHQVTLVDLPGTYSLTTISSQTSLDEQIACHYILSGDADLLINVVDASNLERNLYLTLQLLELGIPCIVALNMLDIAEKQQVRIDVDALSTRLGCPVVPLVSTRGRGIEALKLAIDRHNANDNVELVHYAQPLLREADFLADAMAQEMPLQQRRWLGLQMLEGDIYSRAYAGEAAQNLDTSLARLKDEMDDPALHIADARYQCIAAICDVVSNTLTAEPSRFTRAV

Row | SMILES | malachite green phosphate release (SmNFeoB) | malachite green phosphate release (SaNFeoB) | malachite green phosphate release (BcNFeoB) | malachite green phosphate release (LmNFeoB) | malachite green phosphate release (EcNFeoB) | malachite green phosphate release (StNFeoB) | malachite green phosphate release (PaNFeoB)
1 | Nc1ncnc2c1ncn2[C@@H]1O[C@H](COP(=O)(O)OP(=O)(O)OP(=O)(O)O)[C@@H](O)[C@H]1O [ATP] | the NFeoB activities of S. aureus, S. mutans, and B. cereus | the NFeoB activities of S. aureus, S. mutans, and B. cereus | the NFeoB activities of S. aureus, S. mutans, and B. cereus | LmNFeoB exhibited ATP hydrolysis activity similar to the activity of VcNFeoB |  |  | 
2 | Nc1nc2c(ncn2[C@@H]2O[C@H](COP(=O)(O)OP(=O)(O)OP(=O)(O)O)[C@@H](O)[C@H]2O)c(=O)[nH]1 [GTP] | the NFeoB activities of S. aureus, S. mutans, and B. cereus | the NFeoB activities of S. aureus, S. mutans, and B. cereus | the NFeoB activities of S. aureus, S. mutans, and B. cereus | Its GTPase activity was higher than other monovalent cations | Like E. coli, S. Typhimurium and P. aeruginosa exhibited only GTP hydrolytic activity | S. Typhimurium and P. aeruginosa exhibited only GTP hydrolytic activity | S. Typhimurium and P. aeruginosa exhibited only GTP hydrolytic activity
